Entries after “also recorded” stand apart in the source; their conditions may differ.
How the values were obtained:
TRAMP-C2G cells = test: Cell viability of TRAMP-C2G stable cell lines (Cell-Titer Fluor, 72 h growth assay); assay type: cell-based, mouse; conditions: 72 h culture; for influence on the effect of MBII-52 or SB 242,084 on cell viability: TRAMP-C2G cells
Description: FIG. 10. MBII-52 was stably overexpressed (>60-fold overexpression) in TRAMP-C2G cells from the pSilencer CMV 4.1 vector. Cell viability was measured (n=5, error bars are SEM) after 72 h culture using Cell-Titer Fluor cell viability assay and normalized to scramble-transfected, vehicle-treated control. One-sample t-tests were performed to compare experimental groups with scramble/vehicle control. Two-tailed t-tests were used to compare the two SB 242,084 treatment groups with each other. * indicated p<0.05 for either test. MBII-52 increases cell viability, while SB 242,084 inhibits it.
To test the hypothesis that HB/MBII-52 can activate 5-HT2cR and promote cancer progression stable cell lines were generated from TRAMP C2D and C2G cells that overexpress MBII-52 from pSilencer 4.1 CMV vector along with control cells expressing a scrambled RNA that has no homology to the mouse or human genome.
Numerous downstream pathways activated by 5-HT2cR have been studied in neuronal cell lines with a focus on neurological development and disease. The pathways relevant to this disclosure are Erk, PI3-K/Akt and RhoA (36,39). Each has previously been studied and targeted in PCa and other cancers. Activation of these pathways during PCa progression or in vitro can directly propagate a transition to malignancy. For example, Erk upregulates hypoxia inducible factor 1 alpha (HIF1α) and therefore vascular endothelial growth factor (Vegf) in response to hypoxia in rats (40). Vegf secretion also appears to be regulated by Erk in LNCaP cell lines (41). Erk is also able to transactivate the androgen receptor (AR) independent of androgen, by phosphorylating steroid receptor co-activator-1 (SRC-1), which then binds AR resulting in ligand-independent activation of AR. Therefore, Erk directly contributes to androgen-independence (41). […] Indeed, stable cell lines overexpressing MBII-52 appeared more proliferative then scramble control stable cell lines in a 72 h growth assay, after which viability was measured using Cell-Titer Fluor Assay (n=5) (FIG. 10).

DU145 clones DU6 and DU2 = test: Cell viability of DU145 HBII-52 clones in response to 5-HT; assay type: cell-based, human; conditions: high concentrations; HBII-52 overexpressing DU6 compared to low expressing DU2; 3 independent experiments
Description: FIG. 17. Overexpression of HBII-52 affects cell viability in response to 5-HT treatment. […] Data are represented as the average+/−SEM of 3 independent experiments

MBII-52 = conditions: C2G cells, serum starvation 72 h, DHT supplementation
Description: Serum starvation induces NED of PCa cell lines (25). […] Furthermore, NED is associated with CR-PCa in vivo, supporting the importance of factors that induce NED as initiators of transition to androgen-independence (26).

[1] = test system: Human Prostate cancer cell lines; test: Cell viability of human prostate cancer cell lines treated for 72 h; assay type: cell-based; conditions: 72 h treatment, 3 independent experiments
Description: FIG. 11. Human Prostate cancer cell lines were treated with SB 242,084 for 72 h. […] Data is the average of 3 independent experiments with error bars indicating SEM.
(§1) Our tests indicate that SB 242,084 is growth-inhibitory in human PCa cell lines (FIG. 11).

PC3 cells = test: Growth inhibition under serum starvation, PC3; assay type: cell-based, human; conditions: PC3, serum starvation vs serum
Description: (§2) FIG. 12. […] Data is representative of multiple independent experiments.
as §1

LNCaP-C4-2 cells = test: Growth inhibition under serum starvation, LNCaP-C4-2; assay type: cell-based, human; conditions: LNCaP-C4-2, serum starvation vs serum
Description: as §2, §1

5-HT2cR [2] = target: T1, 5-HT2cR (Homo sapiens, UniProt P28335); conditions: cited from earlier work
T1 sequence (P28335 33-458): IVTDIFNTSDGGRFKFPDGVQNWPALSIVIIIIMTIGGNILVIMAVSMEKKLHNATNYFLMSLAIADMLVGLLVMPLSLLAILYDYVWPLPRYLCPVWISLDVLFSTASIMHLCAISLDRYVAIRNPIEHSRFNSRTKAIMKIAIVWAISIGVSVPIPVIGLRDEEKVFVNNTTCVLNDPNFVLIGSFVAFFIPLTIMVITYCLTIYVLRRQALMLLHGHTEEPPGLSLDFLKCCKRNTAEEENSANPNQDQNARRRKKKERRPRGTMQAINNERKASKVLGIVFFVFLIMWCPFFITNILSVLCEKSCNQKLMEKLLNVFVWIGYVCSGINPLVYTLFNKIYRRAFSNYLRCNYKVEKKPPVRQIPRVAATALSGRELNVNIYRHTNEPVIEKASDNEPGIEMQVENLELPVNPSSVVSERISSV

[3] = compared with SB206,553; cited from earlier work
5-HT2cR [4] = target: T1, 5-HT2cR; conditions: in vitro and in vivo; cited from earlier work
Erk = conditions: cited from earlier work

Row | Structure (SMILES) | influence on the effect of MBII-52 or SB 242,084 on cell viability (TRAMP-C2G cells) | cytotoxic response (cell viability) (DU145 clones DU6 and DU2) | MBII-52 expression increase caused by serum starvation (MBII-52) | cell viability (TRAMP-C2G cells; scramble and MBII-52 overexpressing TRAMP-C2G cells, n=5) | cell viability / growth inhibition [1] | growth inhibition upon serum starvation (PC3 cells) | growth inhibition upon serum starvation (LNCaP-C4-2 cells) | potency relative to SB 206,553 (5-HT2cR [2]) | selectivity for 5-HT2cR over 5-HT2aR (5-HT2cR [2]) | selectivity for 5-HT2cR over 5-HT2bR (5-HT2cR [2]) | resistance to metabolic methylation [3] | antagonist activity (5-HT2cR [4]) | activation of downstream targets including Erk (Erk)
1 | NCCc1c[nH]c2ccc(O)cc12 [5-HT, serotonin] | Neither DHT nor 5-HT appear to have much influence | increased cytotoxic response | – | – | – | – | – | – | – | – | – | – | –
2 | C[C@]12CCC(=O)C[C@@H]1CC[C@@H]1[C@@H]2CC[C@]2(C)[C@@H](O)CC[C@@H]12 [DHT, 5α-dihydrotestosterone] | Neither DHT nor 5-HT appear to have much influence | – | almost completely block the increase in MBII-52; also recorded: abrogates the observed upregulation of MBII-52 | – | – | – | – | – | – | – | – | – | –
3 | Cc1cc2c(cc1Cl)N(C(=O)Nc1ccc(Oc3cccnc3C)nc1)CC2 [SB 242,084] | – | – | – | inhibits; also recorded: effective in both scramble and MBII-52 overexpressing cells | dose-dependent decrease in cell viability levels; also recorded: growth-inhibitory | significantly (p<0.05) further improved | significantly (p<0.05) further improved | increased potency | greater than 100 fold | greater than 100 fold | more resistant to the metabolic methylation than SB206,553 | potent antagonist activity | inhibits activation

Reference: patent US10487362B2, “Methods for diagnosing cancer based on small nucleolar RNA HBII-52” (Health Research, Inc., priority 2013, dated 2019)
